Experimental data: PubChem BioAssay AID2060487 (Molecular Pharmacology Branch, DTP, NCI, 2025)
“And” between values parts separate entries of the source, which are not always exact repeats. Equal entries are not always repeated.

Tested on: 997537-175-T-J1-PDC complex spheroid viability
Assay: Anticancer human tumor 997537-175-T-J1-PDC patient-derived colon adenocarcinoma cell line growth inhibition [GQUAD]
Conditions: for viability, T/C: stronger effect = lower value
Source text: DNA G-quadruplex Stabilizer Agents in Combinations in Complex Spheroids
A high-throughput screen of multi-cell type tumor spheroids was designed to identify active combinations of DNA G-quadruplex stabilizer agents and targeted small molecules. Complex spheroids include a stromal component modeled by human endothelial cells (HUVEC) and fibroblasts modeled by human mesenchymal stem cells (MSCs). The concentration ranges selected for each drug and investigational agent were based upon clinically achievable concentrations if the clinical Cmax of the agent was known.
Compounds. The drugs and investigational agents: pidnarulex (CX-5461; NSC782164), APTO-253 (NSC789042), BRACO-19 (NSC847499), peposertib (NSC802822), ceralasertib (NSC780249), elimusertib (NSC800525), camonsertib (NSC841442), AZD-1390 (NSC803789), olaparib (NSC753686), talazoparib (NSC767125), ART-558 (NSC835418), sotorasib (NSC818433), MRTX-1133 (NSC836407), SN-38 (NSC673596), topotecan (NSC609699), etoposide (NSC141540), doxorubicin (NSC123127), gemcitabine (NSC613327), 5-fluorouracil (NSC19893), paclitaxel (NSC125973), vemurafenib (NSC761431), panobinostat (NSC761190), R-306465 (JNJ-16241199; NSC773264), adavosertib (NSC754352), TP-3654 (NSC805149), carboplatin (NSC241240), KSQ-4279 (NSC840948), and staurosporine (NSC755774) were obtained from the National Cancer Institute (NCI) Developmental Therapeutics Program Chemical Repository (34). The FDA-approved anticancer drug set is available from the NCI Developmental Therapeutics Program. […] The stock solutions were prepared in dimethyl sulfoxide (DMSO, Sigma-Aldrich, St. Louis, MO, cat. D2650) at 800-fold the tested concentration and stored at -70 degrees C prior to their use. All drugs and investigational agents were tested over a range starting from a high concentration at or near the clinical Cmax and decreasing in half-log increments. If the clinical Cmax for an agent had not been determined, the highest concentration tested was 10 microM.
2.3 Cell Culture. All cells were maintained in an incubator at 37 degrees C and 5% CO2 with 95% humidity. The PDC lines were cultured according to standard operating procedures established by the NCI PDMR. All PDCs were thawed and cultured in Matrigel-coated flasks prepared with a working solution of 1X Ham's F-12 nutrient mix, without supplementation (Invitrogen, cat. 11765054), 100 U/mL penicillin-streptomycin (Invitrogen, cat. 15140122), and 2.5% Matrigel (Corning Inc., cat. 354248) for the first three passages. The 857933-349-R-J2-PDC line was cultured in 6C/Colon 1B media, which includes advanced DMEM/F-12 (Thermo Fisher Scientific, cat. 12634028), 10 mM HEPES (Thermo Fisher Scientific, cat. 15630080), 1X GlutaMAX supplement (Thermo Fisher Scientific, cat. 35050061), 0.1 mg/mL primocin (InvivoGen, cat. ant-pm-2), 10% defined fetal bovine serum, heat inactivated (HyClone Laboratories Inc., cat. SH30070.03HI), 50% L-WRN conditioned media (ATCC, cat. CRL-3276), 1.25 mM N-Acetyl-L-cysteine (Sigma-Aldrich, cat. A9165), 10 mM nicotinamide (Sigma-Aldrich, cat. N0636), 1X B-27 supplement (Thermo Fisher Scientific, cat. 17504044), 1X N-2 supplement (Thermo Fisher Scientific, cat. 17502048), 10 microM Y-27632 dihydrochloride (Tocris Bioscience, cat. 1254), and 50 ng/mL human EGF recombinant protein (Thermo Fisher Scientific, cat. PHG0311). The 485176-168-R4-J1-PDC line was cultured in Panc media, which includes all 6C/Colon 1B media components plus 100 ng/mL human FGF-10 (Thermo Fisher Scientific, cat. 100-26), 500 nM SB-431542 (Selleckchem, cat. S1067), and gastrin (Tocris, cat. 3006).
[…]
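Further: spheroids exposed to the agents for 7 days.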
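Wherever viability, T/C is given: 100% = DMSO vehicle control viability.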

Cc1[nH]c2ccccc2c1CCNCc1ccc(/C=C/C(=O)NO)cc1 + Cc1cnc(CNC(=O)c2c(=O)c3ccc(N4CCCN(C)CC4)nc3n3c2sc2ccccc23)cn1
IC50 (curve of first compound, second compound 0.0316 µM): > 316 nM
IC50 (curve of first compound, second compound 0.1 µM): > 316 nM
IC50 (curve of first compound, second compound 0.316 µM): 232 nM
IC50 (curve of first compound, second compound 1 µM): > 316 nM
IC50 (curve of first compound, second compound 3.16 µM): 226 nM
IC50 (curve of first compound, second compound 10 µM): 281 nM
viability, T/C (second compound 0.0316 µM, first compound 0.000999 µM): 87.7%
viability, T/C (second compound 0.0316 µM, first compound 0.00316 µM): 99%
viability, T/C (second compound 0.0316 µM, first compound 0.00999 µM): 98%
viability, T/C (second compound 0.0316 µM, first compound 0.0316 µM): 80.6%
viability, T/C (second compound 0.0316 µM, first compound 0.0999 µM): 82.2%
viability, T/C (second compound 0.0316 µM, first compound 0.316 µM): 52.7%
viability, T/C (second compound 0.1 µM, first compound 0.000999 µM): 98.3%
viability, T/C (second compound 0.1 µM, first compound 0.00316 µM): 94.9%
viability, T/C (second compound 0.1 µM, first compound 0.00999 µM): 88.9%
viability, T/C (second compound 0.1 µM, first compound 0.0316 µM): 90.5%
viability, T/C (second compound 0.1 µM, first compound 0.0999 µM): 80.2%
viability, T/C (second compound 0.1 µM, first compound 0.316 µM): 59.5%
viability, T/C (second compound 0.316 µM, first compound 0.000999 µM): 105%
viability, T/C (second compound 0.316 µM, first compound 0.00316 µM): 90.7%
viability, T/C (second compound 0.316 µM, first compound 0.00999 µM): 88.6%
viability, T/C (second compound 0.316 µM, first compound 0.0316 µM): 84.1%
viability, T/C (second compound 0.316 µM, first compound 0.0999 µM): 99.9%
viability, T/C (second compound 0.316 µM, first compound 0.316 µM): 33.9%
viability, T/C (second compound 1 µM, first compound 0.000999 µM): 76.1%
viability, T/C (second compound 1 µM, first compound 0.00316 µM): 87.6%
viability, T/C (second compound 1 µM, first compound 0.00999 µM): 101%
viability, T/C (second compound 1 µM, first compound 0.0316 µM): 102%
viability, T/C (second compound 1 µM, first compound 0.0999 µM): 81.8%
viability, T/C (second compound 1 µM, first compound 0.316 µM): 53.1%
viability, T/C (second compound 3.16 µM, first compound 0.000999 µM): 96%
viability, T/C (second compound 3.16 µM, first compound 0.00316 µM): 100%
viability, T/C (second compound 3.16 µM, first compound 0.00999 µM): 103%
viability, T/C (second compound 3.16 µM, first compound 0.0316 µM): 81.4%
viability, T/C (second compound 3.16 µM, first compound 0.0999 µM): 110%
viability, T/C (second compound 3.16 µM, first compound 0.316 µM): 30.2%
viability, T/C (second compound 10 µM, first compound 0.000999 µM): 99.2%
viability, T/C (second compound 10 µM, first compound 0.00316 µM): 108%
viability, T/C (second compound 10 µM, first compound 0.00999 µM): 92.8%
viability, T/C (second compound 10 µM, first compound 0.0316 µM): 94.4%
viability, T/C (second compound 10 µM, first compound 0.0999 µM): 108%
viability, T/C (second compound 10 µM, first compound 0.316 µM): 44.3%

Nc1ccn(C2OC(CO)C(O)C2(F)F)c(=O)n1 (stereo unspecified)
viability, T/C (compound 0.0316 µM): 103% (2×) and 99.3%
viability, T/C (compound 0.1 µM): 92.3% and 96% and 108%
viability, T/C (compound 0.316 µM): 93.5% and 99.5% and 101%
viability, T/C (compound 1 µM): 91.9% and 64.2% and 92.5%
viability, T/C (compound 3.16 µM): 88.4% and 55.3% and 62%
viability, T/C (compound 10 µM): 85.4% and 64.9% and 84.9%
IC50 (curve of compound): > 10000 nM

COc1cccc2c1C(=O)c1c(O)c3c(c(O)c1C2=O)CC(O)(C(=O)CO)CC3OC1CC(N)C(O)C(C)O1 (stereo unspecified)
viability, T/C (compound 0.0316 µM): 98.9% and 107% and 104%
viability, T/C (compound 0.1 µM): 95.5% and 101% and 75.2%
viability, T/C (compound 0.316 µM): 92.8% and 91.6% and 89.9%
viability, T/C (compound 1 µM): 99.9% and 88.3% and 107%
viability, T/C (compound 3.16 µM): 76.1% and 72.2% and 74.3%
viability, T/C (compound 10 µM): 51.4% and 40.7% and 23.7%
IC50 (curve of compound): > 10000 nM and 7160 nM and 5500 nM
